According to patent US9012200B2, “Composition of bacterial strains, bioremediation mixture and use of this composition for the removal of contaminants from the soil and the method for purifying the soil contaminants” (priority 2012, dated 2015):
Read-outs that look alike come from different tables or passages of the source.

What was measured:
[1] = test system: Achromobacter sp. strain 4P; type: cell-based
[2] = test system: Pseudomonas sp. strain 3G; type: cell-based; settings: 24 h
[3] = test system: Pseudomonas sp. strain 4G; type: cell-based
[4] = test system: Stenotrophomonas sp. strain 2L; type: cell-based
[5] = test system: Stenotrophomonas sp. strain 5L; type: cell-based
[6] = test system: Stenotrophomonas sp. strain 6L; type: cell-based
[7] = test system: Arthrobacter sp. strain 1N; type: cell-based
[8] = test system: Brevundimonas sp. strain 2N; type: cell-based
[9] = test system: Stenotrophomonas sp. strain 3N; type: cell-based
[10] = test system: Brevundimonas sp. strain 5N; type: cell-based
[11] = test system: Brevundimonas sp. strain 6N; type: cell-based
[12] = test system: investigated strains of bacteria; type: cell-based
[13] = test system: model strain Escherichia coli; settings: according to Spain, 2003; cited from earlier work

Q: Which results are given for Sodium arsenite [As (III)]?
A: MIC threshold values of heavy metals [1]: 5(6) mM/L; MIC threshold values of heavy metals [2]: 5 mM/L; MIC threshold values of heavy metals ([3]; 24 h): 5 mM/L; MIC threshold values of heavy metals ([3]; 48 h): 8 mM/L; MIC threshold values of heavy metals [4]: 4(6) mM/L; MIC threshold values of heavy metals [5]: 5(7) mM/L; MIC threshold values of heavy metals [6]: 5(7) mM/L; MIC threshold values of heavy metals [7]: 5(8) mM/L; MIC threshold values of heavy metals [8]: 5(7) mM/L; MIC threshold values of heavy metals [9]: 3(5) mM/L; MIC threshold values of heavy metals [10]: 4(7) mM/L; MIC threshold values of heavy metals [11]: 4(7) mM/L; Susceptibility of the investigated strains to the heavy metal [12]: resistant; MIC [13]: 0.5 mM/L
